Assays:
[1] = system: Apple scab fungus (Venturia inaequalis); experiment: Apple scab control test (foliar spray on apple seedlings); type: in vivo; settings: 125 ppm active ingredient, sprayed on apple seedlings (variety Orin) before inoculation, vs untreated
Experimental: The dilution was sprayed to apple seedlings (variety “Orin”, 3 to 4 leaf stage) grown in clay pots. […] The control value was calculated by the following equation. [formula]

[2] = system: Tomato late blight fungus (Phytophthora infestans); experiment: whole plant or invertebrate; type: in vivo; settings: foliar, 96 h, read-out: control value
[3] = system: cucumber gray mold fungus (Botrytis cinerea); experiment: Cucumber gray mold control test (foliar spray on cucumber seedlings); settings: in Cucumis sativus, 96 h, read-out: control value

| Structure (SMILES) | pest or weed control at 125 ppm [1] [%] | pest or weed control at 125 ppm [2] [%] | pest or weed control at 125 ppm [3] [%] |
| --- | --- | --- | --- |
| N=C(N)c1ccc(OCCCN2CCN(CCCOc3ccc(C(=N)N)cc3)C2=N)cc1 [compound 2, 4-[3-[3-[3-(4-carbamimidoylphenoxy)propyl]-2-imino-imidazolidin-1-yl]propoxy]benzamidine] | ≥ 75 | ≥ 75 | ≥ 75 |
| N=C(N)NCCCCCCN1CCN(CCCCCCNC(=N)N)C1=N [compound 4, 1-[6-[3-(6-guanidinohexyl)-2-imino-imidazolidin-1-yl]hexyl]guanidine] | ≥ 75 | – | ≥ 75 |
| N=C(N)NCCCCCCCNC(=N)NCCCCCCCNC(=N)N [compound 12, 1,3-bis(7-guanidinoheptyl)guanidine] | ≥ 75 | – | ≥ 75 |
| N=C(NCCCCCCCOc1ccc(C(=N)N)cc1)NCCCCCCCOc1ccc(C(=N)N)cc1 [compound 14, 4-[7-[[N-[7-(4-carbamimidoylphenoxy)heptyl]carbamimidoyl]amino]heptoxy]benzamidine] | – | – | ≥ 75 |
| N=C(NCCCOc1ccc(C(=N)N)cn1)NCCCOc1ccc(C(=N)N)cn1 [compound 17, 6,6′-((((iminomethylene)bis(azanediyl))bis (propane-3,1-diyl))bis(oxy))dinicotinimidamide] | ≥ 75 | – | ≥ 75 |
| N=C(N)c1ccc(OCCCn2ccn(CCCOc3ccc(C(=N)N)cc3)c2=N)cc1 [compound 20, 4-[3-[3-[3-(4-carbamimidoylphenoxy)propyl]-2-imino-imidazol-1-yl]propoxy]benzamidine] | – | – | ≥ 75 |
| N=C(N)c1ccc(OCCCCn2c(=N)n(CCCCOc3ccc(C(=N)N)cc3)c3ccccc32)cc1 [compound 27, 4-[4-[3-[4-(4-carbamimidoylphenoxy)butyl]-2-imino-benzimidazol-1-yl]butoxy]benzamidine] | ≥ 75 | ≥ 75 | ≥ 75 |
| N=C(N)NCCCCCCCNC(=N)NCCCCOc1ccc(C(=N)N)cc1 [compound 30, 4-[4-[[N-(7-guanidinoheptyl)carbamimidoyl]amino]butoxy]benzamidine] | ≥ 75 | ≥ 75 | ≥ 75 |
| N=C(N)c1ccc(OCCCCn2ccn(CCCCOc3ccc(C(=N)N)cc3)c2=N)cc1 [compound 36, 4-[4-[3-[4-(4-carbamimidoylphenoxy)butyl]-2-imino-imidazol-1-yl]butoxy]benzamidine] | ≥ 75 | ≥ 75 | ≥ 75 |
| N=C(N)c1ccc(OCCCCN2CCN(CCCCOc3ccc(C(=N)N)cc3)C2=N[N+](=O)[O-])cc1 [compound 38, 4-[4-[3-[4-(4-carbamimidoylphenoxy)butyl]-2-nitroimino-imidazolidin-1-yl]butoxy]benzamidine] | ≥ 75 | – | ≥ 75 |
| N=C(N)NCCCCCCCNC(=N)NCCCOc1ccc(C(=N)N)nn1 [compound 44, 6-(3-(3-(7-guanidinoheptyl)guanidino)propoxy) pyridazine-3-carboxamidine] | ≥ 75 | ≥ 75 | ≥ 75 |
| N=C(N)c1ccc(OCCCCn2ccn(CCCCOc3ccc(C(=N)N)cn3)c2=NC(=O)C(F)(F)F)nc1 [compound 46, N-(1,3-bis(4-((5-carbamimidoylpyridin-2-yl)oxy)butyl)-1,3-dihydro-2H-imidazol-2-ylidene)-2,2,2-trifluoroacetamide] | – | – | ≥ 75 |
| N=C(N)c1ccc(OCCCn2ccn(CCCOc3ccc(C(=N)N)cc3Br)c2=N)c(Br)c1 [compound 54, 3-bromo-4-[3-[3-[3-(2-bromo-4-carbamimidoyl-phenoxy)propyl]-2-imino-imidazol-1-yl]propoxy]benzamidine] | – | ≥ 75 | ≥ 75 |
| N=C(N)c1ccc(OCCCNC(=Nc2ccccc2)NCCCOc2ccc(C(=N)N)cc2)cc1 [compound 63, 4-[3-[[N-[3-(4-carbamimidoylphenoxy)propyl]-N′-phenyl-carbamimidoyl]amino]propoxy]benzamidine] | ≥ 75 | – | ≥ 75 |
| N=C(NCCCc1ccc(C(=N)N)cc1)NCCCc1ccc(C(=N)N)cc1 [compound 65, 4-[3-[[N-[3-(4-carbamimidoylphenyl)propyl]carbamimidoyl]amino]propyl]benzamidine] | ≥ 75 | – | ≥ 75 |
| CC(C)(C)OC(=O)NC(=N)c1ccc(OCCn2ccn(CCOc3ccc(C(=N)NC(=O)OC(C)(C)C)cc3)c2=NC(=O)C(F)(F)F)cc1 [compound 73] | ≥ 75 | – | – |
| N=c1n(CCCOc2ccc(C3=NCCCN3)cc2)ccn1CCCOc1ccc(C2=NCCCN2)cc1 [compound 76] | ≥ 75 | ≥ 75 | ≥ 75 |
| N=C(NCCCOc1ccc(C2=NCCN2)cc1)NCCCOc1ccc(C2=NCCN2)cc1 [compound 78] | ≥ 75 | – | ≥ 75 |
| N=C(NCCCc1cc2cc(C(=N)N)ccc2o1)NCCCc1cc2cc(C(=N)N)ccc2o1 [compound 80] | ≥ 75 | ≥ 75 | ≥ 75 |
| N=C(NCCCOc1ccc(C(=N)N)c(F)c1)NCCCOc1ccc(C(=N)N)c(F)c1 [compound 82] | ≥ 75 | ≥ 75 | ≥ 75 |
| Cc1cc(C(=N)N)ccc1OCCCCNC(=N)NCCCCOc1ccc(C(=N)N)cc1C [compound 84] | ≥ 75 | ≥ 75 | ≥ 75 |
| N=C(NCCCCOc1ccc(C(=N)N)cc1Cl)NCCCCOc1ccc(C(=N)N)cc1Cl [compound 86] | ≥ 75 | ≥ 75 | ≥ 75 |

| Structure (SMILES) | pest or weed control at 125 ppm [1] [%] | pest or weed control at 125 ppm [2] [%] | pest or weed control at 125 ppm [3] [%] |
| --- | --- | --- | --- |
| N=C(N)c1ccc(OCCCCCn2ccn(CCCCCOc3ccc(C(=N)N)cc3)c2=N)cc1 [compound 88] | ≥ 75 | ≥ 75 | ≥ 75 |
| N=C(NCCCCCc1nc(C(=N)N)cs1)NCCCOc1ccc(C(=N)N)cc1 [compound 91] | ≥ 75 | ≥ 75 | ≥ 75 |
| N=C(N)c1ccc(OCCCCCn2ccn(CCOc3ccc(C(=N)N)cc3)c2=N)cc1 [compound 93] | ≥ 75 | ≥ 75 | ≥ 75 |
| N=C(N)c1csc(CCCCCn2ccn(CCCCCc3nc(C(=N)N)cs3)c2=N)n1 [compound 95] | ≥ 75 | – | ≥ 75 |
| CNCCNC(=N)c1ccc(OCCCn2ccn(CCCOc3ccc(C(=N)NCCNC)cc3)c2=N)cc1 [compound 97] | ≥ 75 | – | – |
| N=C(N)c1ccc(OCCCn2ccn(CCCOc3ccc(C(=N)N)cc3Cl)c2=N)c(Cl)c1 [compound 99] | ≥ 75 | ≥ 75 | ≥ 75 |
| CNCCNC(=N)c1ccc(OCCCn2ccn(CCCOc3ccc(C(=N)N)cc3)c2=N)cc1 [compound 101] | ≥ 75 | ≥ 75 | ≥ 75 |
| Cc1c(C)n(CCCCOc2ccc(C(=N)N)cc2)c(=N)n1CCCCOc1ccc(C(=N)N)cc1 [compound 105] | ≥ 75 | ≥ 75 | ≥ 75 |
| CNC(=N)c1ccc(OCCCn2ccn(CCCOc3ccc(C(=N)NC)cc3)c2=N)cc1 [compound 116] | ≥ 75 | ≥ 75 | ≥ 75 |
| CNC(=N)c1ccc(OCCCCn2ccn(CCCCOc3ccc(C(=N)NC)cc3)c2=N)cc1 [compound 118] | ≥ 75 | ≥ 75 | ≥ 75 |
| N=C(N)NCCCCCNC(=N)NCCCOc1ccc(C(=N)N)cc1 [compound 132] | ≥ 75 | ≥ 75 | ≥ 75 |
| N=C(N)NCCCCCCNC(=N)NCCCOc1ccc(C(=N)N)cc1 [compound 134] | ≥ 75 | ≥ 75 | ≥ 75 |
| C/N=C(/NCCCOc1ccc(C(=N)N)cc1)N(C)CCCOc1ccc(C(=N)N)cc1 [compound 138] | ≥ 75 | ≥ 75 | ≥ 75 |
| N=C(N)c1ccc(COCCCn2ccn(CCCOCc3ccc(C(=N)N)cc3)c2=N)cc1 [compound 161] | ≥ 75 | – | ≥ 75 |
| N=C(NCCCOCc1ccc(C(=N)N)cc1)NCCCOCc1ccc(C(=N)N)cc1 [compound 175] | ≥ 75 | – | ≥ 75 |
| N=C(NCCOCc1ccc(C(=N)N)cc1)NCCOCc1ccc(C(=N)N)cc1 [compound 226] | ≥ 75 | – | ≥ 75 |
| N=C(N)NCCCCCCCCNC(=N)NCCOc1ccc(C(=N)N)cc1 [compound 232] | ≥ 75 | ≥ 75 | – |
| N=C(N)NCCCCCCCCNC(=N)NCCCc1ccc(C2=NCCCN2)cc1 [compound 271] | ≥ 75 | – | – |
| N=c1[nH]ccn1CCCCCCCCn1ccn(CCCOc2ccc(C3=NCCCN3)cc2)c1=N [compound 283] | ≥ 75 | – | ≥ 75 |
| N=C(N)NCCCCCCCNC(=N)NCCOc1ccc2cc(C3=NCCCN3)ccc2c1 [compound 290] | ≥ 75 | ≥ 75 | – |
| N=C(NCCCCCCCCNC1=NCCN1)NCCOc1ccc(C2=NCCCN2)cc1 [compound 294] | ≥ 75 | – | – |
| N=C(NCCCCCCCCNC1=NCCN1)NCCCOc1ccc(C2=NCCCN2)cc1 [compound 296] | ≥ 75 | – | ≥ 75 |
